# Test system: recombinant NL-RLuc virus (HIV, NL4-3 derived) in MT-2 cells
# Assay: Inhibition of HIV replication (NL-RLuc virus in MT-2 cells, luciferase readout)
# Format: cell-based
# Settings: 5 days of incubation, 10% FBS
# Description: Inhibition of HIV Replication.
# A recombinant NL-RLuc proviral clone was constructed in which a section of the nef gene from NL4-3 was replaced with the Renilla Luciferase gene. This virus is fully infectious and can undergo multiple cycles of replication in cell culture. In addition, the luciferous reporter provides a simple and easy method for quantitating the extent of virus growth and consequently, the antiviral activity of test compounds. The plasmid pNLRLuc contains the proviral NL-Rluc DNA cloned into pUC 18 at the PvuII site. The NL-RLuc virus was prepared by transfection of 293T cells with the plasmid pNLRLuc. Transfections were performed using the LipofectAMINE PLUS kit from Invitrogen (Carlsbad, Calif.) according to the manufacturer and the virus generated was titered in MT-2 cells. For susceptibility analyses, the titrated virus was used to infect MT-2 cells in the presence of compound, and after 5 days of incubation, cells were processed and quantitated for virus growth by the amount of expressed luciferase. […] Luciferase was quantitated using the Dual Luciferase kit from Promega (Madison, Wis.). Susceptibility of viruses to compounds was determined by incubation in the presence of serial dilutions of the compound. […]
compound,measurement,value
"Cc1ccc2c(c1)-c1cccc(c1)-c1nc3cc(C)c([C@H](OC(C)(C)C)C(=O)O)c(c3s1)-c1ccc3c(c1)C(CCCC[C@H](C)O2)CCO3 (single isomer, unassigned) [Example 1]",EC50,5620 nM
"Cc1ccc2c(c1)-c1cccc(c1)-c1nc3cc(C)c([C@H](OC(C)(C)C)C(=O)O)c(c3s1)-c1ccc3c(c1)C(CCCC[C@H](C)O2)CCO3 (single isomer, unassigned) [Example 2]",EC50,350 nM

# From patent US9944656B2, “Benzothiazole macrocycles as inhibitors of human immunodeficiency virus replication” (priority 2014, dated 2018)
